How the values were obtained:
bulrush (Sc) = assay: Test Example 1: herbicidal effects by paddy field soil treatment; type: in vivo; settings: 100 g of the active ingredient per 10 ares, 21st day after the application, index 0-5 of Table 47;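 note: grade of growth control; 5 = at least 90%; 4 = 70 to 90%; 3 = 50 to 70%; 2 = 30 to 50%; 1 = 10 to 30%; 0 = under 10%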
In short: (§1)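 Greenhouse pot test in flooded paddy soil, dosed at 100 g a.i. per 10 ares; effect scored on day 21.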

barnyardgrass (Ec) [1] = assay: as above; type: in vivo; settings: 100 g of the active ingredient per 10 ares, 21st day after the application, index 0-5 of Table 47
In short: as §1

monochoria (Mo) = assay: as above; type: in vivo; settings: 100 g of the active ingredient per 10 ares, 21st day after the application, index 0-5 of Table 47;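 note: grade of growth control; 5 = at least 90%; 4 = 70 to 90%; 3 = 50 to 70%; 2 = 30 to 50%; 1 = 10 to 30%; 0 = under 10%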
In short: as §1

corn (Ze) = assay: Test Example 11: crop plant selectivity by upland field foliage treatment (corn), phytotoxicity; settings: dose 1.6 g ai/10a
Method: (§2) (Test on Crop Plant Selectivity by Upland Field Foliage Treatment)
(§3) In a plastic pot (surface area: 600 cm^2) filled with sand, corn (Ze), pale smartweed (Po), slender amaranth (Am), common lambsquarters (Ch) and China jute (Ab) were sown and cultured in a green house for 2 weeks. […] The plants were then cultured in a green house, and the evaluation of the herbicidal effects and phytotoxicity was conducted on the 14th day after the treatment in accordance with the standards as identified in Table 47.

slender amaranth (Am) [2] = assay: Test Example 3: herbicidal effects by upland field foliage treatment; type: in vivo; design: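 grade of growth control; 5 = at least 90%; 4 = 70 to 90%; 3 = 50 to 70%; 2 = 30 to 50%; 1 = 10 to 30%; 0 = under 10%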
In short: (§4)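 Seeds → sand pot (120 cm^2) → soil cover → greenhouse 2 wk → foliar treatment → greenhouse → herbicidal score at 14 d post-treatment against graded standards.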

barnyardgrass (Ec) [3] = assay: as above; type: in vivo; design: scale not given here
In short: as §4

[4] = test system: common lambsquarters (Ch); assay: as above; type: in vivo; design: scale not given here
In short: as §4

pale smartweed (Po) [5] = assay: as above; type: in vivo; design: scale not given here
In short: as §4

rice flatsedge (Ci) = assay: as above; type: in vivo; design: scale not given here
In short: as §4

Diaitaria ciliaris (Di) = assay: as above; type: in vivo; design: scale not given here
In short: as §4

wheat (Tr) = assay: Test Example 9: crop plant selectivity by upland field foliage treatment (wheat), phytotoxicity; settings: dose 1.6 g ai/10a, 14th day after treatment;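 note: grade of crop injury; 5 = at least 90%; 4 = 70 to 90%; 3 = 50 to 70%; 2 = 30 to 50%; 1 = 10 to 30%; 0 = under 10%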
In short: (§5)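 Wheat and weeds sown in sand-filled pots, grown 2 weeks in a greenhouse, then foliage-treated. Herbicidal effect and crop phytotoxicity were scored 14 days after treatment against a rating scale.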

slender amaranth (Am) [6] = assay: Test Example 11: crop plant selectivity by upland field foliage treatment (corn), herbicidal effects; type: in vivo; design: scale not given here; settings: dose 1.6 g ai/10a
Method: as §2, §3

[7] = test system: common lambsquarters (Ch); assay: as above; type: in vivo; design: scale not given here; settings: dose 1.6 g ai/10a
Method: as §2, §3

pale smartweed (Po) [8] = assay: as above; type: in vivo; design: scale not given here; settings: dose 1.6 g ai/10a
Method: as §2, §3

China jute (Ab) [9] = assay: as above; type: in vivo; design: scale not given here; settings: dose 1.6 g ai/10a
Method: as §2, §3

slender amaranth (Am) [10] = assay: Test Example 9: crop plant selectivity by upland field foliage treatment (wheat), herbicidal effects; type: in vivo; design: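 grade of growth control; 5 = at least 90%; 4 = 70 to 90%; 3 = 50 to 70%; 2 = 30 to 50%; 1 = 10 to 30%; 0 = under 10%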; settings: dose 1.6 g ai/10a, 14th day after treatment
In short: as §5

[11] = test system: common lambsquarters (Ch); assay: as above; type: in vivo; design: scale not given here; settings: dose 1.6 g ai/10a, 14th day after treatment
In short: as §5

pale smartweed (Po) [12] = assay: as above; type: in vivo; design: scale not given here; settings: dose 1.6 g ai/10a, 14th day after treatment
In short: as §5

China jute (Ab) [13] = assay: as above; type: in vivo; design: scale not given here; settings: dose 1.6 g ai/10a, 14th day after treatment
In short: as §5

[14] = 100 g active ingredient per 10 ares, evaluated 14th day after treatment
[15] = upland field foliage treatment, 14th day after treatment
[16] = upland field foliage treatment (corn test), 14th day after treatment
[17] = 100 g of the active ingredient per 10 ares, evaluated on the 14th day after treatment

| SMILES | Herbicidal effects Sc (bulrush (Sc)) | Herbicidal effects Ec (barnyardgrass (Ec) [1]) | Herbicidal effects Mo (monochoria (Mo)) | Phytotoxicity Tr (wheat (Tr)) | Herbicidal effects Am (slender amaranth (Am) [10]) | Herbicidal effects Ch [11] | Herbicidal effects Po (pale smartweed (Po) [12]) | Herbicidal effects Ab (China jute (Ab) [13]) | Phytotoxicity Ze (corn (Ze); [15]) | Herbicidal effects Am (slender amaranth (Am) [6]; [16]) | Herbicidal effects Ch [7, 16] | Herbicidal effects Po (pale smartweed (Po) [8]; [16]) | Herbicidal effects Ab (China jute (Ab) [9]; [16]) | other results |
| --- | --- | --- | --- | --- | --- | --- | --- | --- | --- | --- | --- | --- | --- | --- |
| CC(C)OCc1cc2c(-c3ccc(C(F)(F)F)n(C)c3=O)c(F)cc(Cl)c2o1 [Compound 4-33] | 5 | 5 | 5 | 2 | 5 | 5 | 5 | 5 | – | – | – | – | – | Phytotoxicity Ze (corn (Ze); corn, foliage treatment, evaluated on 14th day after treatment, index per Table 47): 2; Herbicidal effects Am (slender amaranth (Am) [2]; [14]): 5; Herbicidal effects Ec (barnyardgrass (Ec) [3]; [14]): 5; Herbicidal effects Ch [4, 14]: 5; Herbicidal effects Po (pale smartweed (Po) [5]; [14]): 5; Herbicidal effects Ci (rice flatsedge (Ci); [14]): 5; Herbicidal effects Di (Diaitaria ciliaris (Di); [14]): 5; Herbicidal effects Am (slender amaranth (Am) [6]; slender amaranth, foliage treatment, evaluated on 14th day after treatment, index per Table 47): 5; Herbicidal effects Ch ([7]; common lambsquarters, foliage treatment, evaluated on 14th day after treatment, index per Table 47): 5; Herbicidal effects Po (pale smartweed (Po) [8]; pale smartweed, foliage treatment, evaluated on 14th day after treatment, index per Table 47): 5; Herbicidal effects Ab (China jute (Ab) [9]; China jute, foliage treatment, evaluated on 14th day after treatment, index per Table 47): 5 |
| CCOC(=O)CN1C(=O)COc2cc(F)c(-c3ccc(C(F)(F)F)n(C)c3=O)cc21 [Compound 2-18] | 5 | 5 | 5 | 2 | 5 | 5 | 5 | 5 | 2 | 5 | 5 | 5 | 5 | – |
| CCOC(=O)C(CC)Sc1cc(-c2ccc(C(F)(F)F)n(C)c2=O)c(Cl)cc1Cl (racemic) [1-125] | – | – | – | 2 | 5 | 5 | 5 | 5 | 2 | 5 | 5 | 5 | 5 | Herbicidal effects Am (slender amaranth (Am) [2]; [17]): 5; Herbicidal effects Ec (barnyardgrass (Ec) [3]; [17]): 5; Herbicidal effects Ch [4, 17]: 5; Herbicidal effects Po (pale smartweed (Po) [5]; [17]): 5; Herbicidal effects Ci (rice flatsedge (Ci); [17]): 5; Herbicidal effects Di (Diaitaria ciliaris (Di); [17]): 5 |
| C#CC(C)Oc1cc(-c2ccc(C(F)(F)F)n(C)c2=O)c(Cl)cc1Cl (stereo not shown) [1-31] | – | – | – | 2 | 5 | 5 | 5 | 5 | 2 | 5 | 5 | 5 | 5 | – |
